Laboratory results: patent US10060933B2, “Methods for diagnosis and treatment of amyotrophic lateral sclerosis based on an increased level of interaction between TDP-43 polypeptide and NF-KB P65 polypeptide” (UNIVERSITE LAVAL, priority 2011, dated 2018)

What was measured:
endogenous mouse TDP-43 = experiment: Western blot of TDP-43 after siRNA transfection of BV-2 cells; assay type: cell-based; conditions: vs scrambled siRNA
Description: (§1) If correct that TDP-43 acts as a co-activator of p65, then reducing the levels of TDP-43 should attenuate p65 activation. To reduce the expression levels of TDP-43, microglial BV-2 cells were transfected with either TDP-43 siRNA or scrambled siRNA together with 4κB^wt-luc vectors. 72 hrs after transfection some of the cells were either stimulated with LPS (100 ng/ml) or mock stimulated for 12 hrs. […] To examine the effect of reducing TDP-43 levels on NF-κB activation, BV-2 cells were transfected with pCMV-p65 and 4κB^wt-luc vectors. TDP-43 siRNA decreased activation of NF-κB reporter gene in transfected cells. The decrease in NF-κB activation was about 3-fold for 5 ng pCMV-p65 (n=4, p<0.01) and about 2.5-fold for 10 and 20 ng pCMV-p65 (n=4, p<0.05) and 2-fold for 50 ng pCMV-p65 (n=4, p<0.05) as compared to scrambled siRNA transfected cells (FIG. 5B). To examine the physiological significance of TDP-43 inhibition by siRNA, we transfected BV-2 cells with ICAM1-luc vector together with TDP-43 siRNA or scrambled siRNA. 72 hrs after transfection, cells were stimulated with varying concentrations of TNF-α. […] We also tested the effect of TDP-43 siRNA transfected in bone-marrow derived macrophages (BMMs) from normal mice. We compared the level of innate immunity activation when stimulated with LPS.
To selectively prevent TDP-43 expression, we employed the RNA interference technology. […]

NF-κB = experiment: 4κB^wt-luc NF-κB reporter gene assay in BV-2 cells; assay type: cell-based, mouse
Description: as §1
(§2) BV2 cells were harvested in 120 μl of cell lysis buffer (Promega, Madison, Wis., USA), and an ensuing 1-min centrifugation step (20,000×g) yielded a luciferase-containing supernatant. In both cases aliquots of 20-μl supernatant were tested for luciferase activity (luciferase assay kit, Promega) and for β-galactosidase activity (β-galactosidase assay kit, Promega) to adjust for transfection efficiency.
(§3) To selectively prevent TDP-43 expression, we employed the RNA interference technology. A double-stranded RNA (siRNA) was employed to degrade TDP-43 mRNA and thus to limit the available protein. The siRNA experiments were designed and conducted as described earlier^26. The siRNAs directed against the murine TDP-43 mRNA (NM_145556.4) consisted of sequences with symmetrical 3′-UU overhangs using siRNA Target Finder (Ambion, Tex., USA). […] To account for the non-sequence-specific effects, scrambled siRNA was used. The sequence of scrambled siRNA is as follows: 5′-[…]-3′ (SEQ ID NO:19) and 5′-[…]-3′ (SEQ ID NO:20). TDP-43 siRNAs or the scrambled siRNAs were suspended in diethyl […] water to yield desired concentration. For in vitro transfection, cells were plated in 24-well plates and transfected with 0.6 μmol/L siRNAs with 2 μL Lipofectamine 2000 (Invitrogen). The cells were then kept for 72 h in OptiMEM medium (Gibco).

[1] = tested on: ICAM-1 luciferase activity; experiment: ICAM1-luc luciferase assay in TNF-α stimulated BV-2 cells; assay type: cell-based, mouse; conditions: vs scrambled siRNA
Description: as §1, §2
To selectively prevent TDP-43 expression, we employed the RNA interference technology. A double-stranded RNA (siRNA) was employed to degrade TDP-43 mRNA and thus to limit the available protein. The siRNA experiments were designed and conducted as described earlier^26. […]

[2] = tested on: bone-marrow derived macrophages (BMMs); experiment: Real-time RT-PCR of innate immunity genes in LPS stimulated bone-marrow derived macrophages; assay type: cell-based, mouse; conditions: vs scrambled siRNA
Description: as §1
Real-time RT-PCR was performed with a LightCycler 480 (Roche Diagnostics) sequence detection system using LightCycler SYBR Green I at the Quebec genomics Centre, Quebec. Total RNA was extracted from cell culture experiments using Trizol reagent (Invitrogen). Total RNA was treated with DNase (Qiagen, Valencia, Calif., USA) to get rid of genomic DNA contaminations. Total RNA was the quantified using Nanodrop and its purity verified by Bioanalyzer 2100 (Agilent Technologies, Santa Clara, Calif., USA). Gene-specific primers were constructed using the GeneTools (Biotools Inc.) software. 3 genes Atp5, Hprt1 and GAPDH were used as internal control genes. The primers used for the analysis of genes are given in S-Table 2 (Swamp et al. J Exp Med 2011, 208, 2429-2447).
as §3

TDP-43 siRNA: double-stranded siRNA against murine TDP-43 mRNA: 5′-AGGAAUCAGCGUGCAUAUAUU-3′ (SEQ ID NO:17), 5′-UAUAUGCACGCUGAUUCCUUU-3′ (SEQ ID NO:18) (listed as RNA, chemistry not given here)
endogenous mouse TDP-43 levels (western blot) (endogenous mouse TDP-43): reduced the endogenous mouse TDP-43 levels significantly
decrease in NF-κB activation (4κB^wt-luc reporter) (NF-κB; 5 ng pCMV-p65, vs scrambled siRNA): about 3 fold
decrease in NF-κB activation (4κB^wt-luc reporter) (NF-κB; 10 ng pCMV-p65, vs scrambled siRNA): about 2.5 fold
decrease in NF-κB activation (4κB^wt-luc reporter) (NF-κB; 20 ng pCMV-p65, vs scrambled siRNA): about 2.5 fold
decrease in NF-κB activation (4κB^wt-luc reporter) (NF-κB; 50 ng pCMV-p65, vs scrambled siRNA): 2 fold
decrease in ICAM-1 luciferase activity ([1]; 0.5 ng/ml TNF-α): 2 fold
decrease in ICAM-1 luciferase activity ([1]; 1.0 ng/ml TNF-α): 2.5 fold
decrease in ICAM-1 luciferase activity ([1]; 1.5 ng/ml TNF-α): 2 fold
reduced levels of Cox-2 mRNA [2]: 2 fold
reduced levels of IL-1β mRNA [2]: 2 fold
reduced levels of IL-6 mRNA [2]: 2.5 fold
reduced levels of IP-10 mRNA [2]: 2 fold
reduced levels of TLR2 mRNA [2]: 1.5 fold
reduced levels of TNF-α mRNA [2]: 3 fold
reduced levels of p65 (RELA) mRNA [2]: 3 fold
